Series [1] is described as follows: Volume of distribution at steady state in Wistar BRL rat plasma at 1 mg/kg, iv and 5 mg/kg, po. Conditions: read-out: Vdss. Type of series: ADME, organism-based.
A short description of series [2]: Cmax in Wistar BRL rat plasma at 5 mg/kg, po. Type of series: ADME, organism-based. Also on record: dose 5 mg/kg, route oral.
Series [3] in a line: Apparent permeability across human Caco2 cell membrane at 20 uM after 1 hr by LC-MS/MS analysis. Conditions: Caco-2. (In general: Caco-2 monolayers are a common model of the intestinal barrier.)
A short description of series [4]: Lipophilicity, log D of the compound. Type of series: physicochemical. As to conditions: octanol/water.
The nature of series [5]: Dissociation constant, pKa of the compound. Type of series: physicochemical.
The next series has as its system Rattus norvegicus. The series is described as follows: Unbound Cmax in Wistar BRL rat plasma at 5 mg/kg, po. More on the design: dose 5 mg/kg, route oral. Type of series: ADME, organism-based. Conditions: in vivo.
A short description of series [6]: Oral bioavailability in Wistar BRL rat at 5 mg/kg. Type of series: ADME, organism-based. As to conditions: in vivo.
The nature of series [7]: in vivo. As to conditions: Wistar BRL, rat, brain, po, 20 mg/kg.
Series [8] is described as follows: in vivo. As to conditions: Wistar BRL, rat, cerebrospinal fluid, po, 20 mg/kg.

Molecules are shown by their SMILES.

The term Cmax denotes the maximum level reached in the sampled fluid or tissue. A word on the Papp: it is a coefficient for how fast a substance crosses the barrier. The logD is lipophilicity at a set pH, counting ionised and neutral species. The pKa is the pH at which an ionisable group is half protonated. Read a low pKa as a stronger acid or weaker base. For orientation: bioavailability means dose-corrected exposure relative to a reference, in per cent. Read a high bioavailability as much systemic uptake. Regarding `CC(C)CN1C(=O)CN(Cc2ccc(-c3cccc(CN4CCCCC4)n3)cc2)C1=O`, the Vd in series [1] was 5.4 L/kg. In addition, the concentration in series [2] peaked (Cmax) at 20 nM. Moreover, in [3], the Papp at 1 h, 20 µM was 21 ×10⁻⁶ cm/s. Further, the logD in series [4] worked out at 2.8. The pKa in series [5] was 8.9. Besides, the fCmax in the series on Rattus norvegicus was 0.006 µM. This molecule gave a bioavailability in series [6] of 4%.
Regarding `CCCN1C(=O)CN(Cc2ccc(-c3cccc(CN4CCCCC4)n3)cc2)C1=O`, the logD in [4] was found to be 2.2. This molecule also had a pKa in series [5] of 8.8.
For `CCN1C(=O)CN(Cc2ccc(-c3cccc(CN4CCCCC4)n3)cc2)C1=O`, in that order: 1.7 and 8.8.
For `CN1C(=O)CN(Cc2ccc(-c3cccc(CN4CCCCC4)n3)cc2)C1=O`, in that order: 1.3 and 8.7.
Turning to `CC(C)N1C(=O)CN(Cc2ccc(-c3cccc(CN4CCCCC4)n3)cc2)C1=O`, the logD in series [4] was 2.2.
`O=C1CN(Cc2ccc(-c3cccc(CN4CCCCC4)n3)cc2)C(=O)N1C1CC1` gave a logD in series [4] of 1.6. The same molecule had a pKa in series [5] of 9.
In series [4], `O=C1CN(Cc2ccc(-c3cccc(CN4CCCCC4)n3)cc2)C(=O)N1C1CCC1` came in with a logD of 2.7.
With `O=C1CN(Cc2ccc(-c3cccc(CN4CCCCC4)n3)cc2)C(=O)N1CC1CC1`, in series [4], the logD worked out at 2.5. This molecule yielded a pKa in series [5] of 8.9.
On the same counts, the results for `O=C1CN(Cc2ccc(-c3cccc(CN4CCCCC4)n3)cc2)C(=O)N1CC(F)F` are 1.6 and 8.9.
For the molecule `O=C1CN(Cc2ccc(-c3cccc(CN4CCCCC4)n3)cc2)C(=O)N1CC(F)(F)F`, in series [4], the logD amounted to 1.9.
With `CCN1C(=O)CN(Cc2ccc(-c3ccc(F)c(CN4CCCCC4)n3)cc2)C1=O`, the logD in [4] is 2.1. Besides, the pKa in series [5] was 8.5.
For `CCCN1C(=O)CN(Cc2ccc(-c3ccc(F)c(CN4CCCCC4)n3)cc2)C1=O`, the logD in series [4] was 2.5. In series [5], this molecule yielded a pKa of 8.5.
In [4], `CC(C)CN1C(=O)CN(Cc2ccc(-c3ccc(F)c(CN4CCCCC4)n3)cc2)C1=O` came in with a logD of 3.4. The pKa in series [5] is 8.6.
For `O=C1CN(Cc2ccc(-c3ccc(F)c(CN4CCCCC4)n3)cc2)C(=O)N1C1CC1`, in that order: 2 and 8.6.
The molecule `O=C1CN(Cc2ccc(-c3ccc(F)c(CN4CCCCC4)n3)cc2)C(=O)N1CC1CC1` had a logD in [4] of 2.8. This molecule displayed a pKa in series [5] of 8.5.
On the same counts, the results for `O=C1CN(Cc2ccc(-c3ccc(F)c(CN4CCCCC4)n3)cc2)C(=O)N1CC1CCC1` are 3.5 and 8.6.
Regarding `O=C1CN(Cc2ccc(-c3ccc(F)c(CN4CCCCC4)n3)cc2)C(=O)N1CC(F)F`, the logD in series [4] came out at 1.9. In [5], this molecule registered a pKa of 9.
Regarding `CC(C)CN1C(=O)CN(Cc2ccc(-c3cccc(CN4CCCC(C)C4)n3)cc2)C1=O` (centres undefined), in [4], the logD worked out at 3.4. For the same molecule, the pKa in [5] was found to be 8.7.
With `CC(C)CN1C(=O)CN(Cc2ccc(-c3ccc(F)c(CN4CCCC(C)C4)n3)cc2)C1=O` (centres undefined), in series [4], the log distribution coefficient (logD) was 3.9. In [5], the pKa was determined as 8.4.
`CC(C)CN1C(=O)CN(Cc2ccc(-c3cccc(CN4CCCC(F)C4)n3)cc2)C1=O` (centres undefined) returned a logD in series [4] of 3.7. In series [5], this molecule had a pKa of 7.4.
On the same counts, the results for `CC(C)CN1C(=O)CN(Cc2ccc(-c3ccc(F)c(CN4CCCC(F)C4)n3)cc2)C1=O` (centres undefined) are 4.1 and 7.2.
In series [4], `CC(C)CN1C(=O)CN(Cc2ccc(-c3ccc(F)c(CN4CCOCC4)n3)cc2)C1=O` yielded a logD of 3.4. Moreover, the pKa in series [5] worked out at 6.
For `CC(C)CN1C(=O)CN(Cc2ccc(-c3cccc(CN4CCCC(F)(F)C4)n3)cc2)C1=O`, the logD in series [4] was found to be 4.5. Besides, the pKa in series [5] was found to be 5.3.
The molecule `CC(C)CN1C(=O)CN(Cc2ccc(-c3ccc(F)c(CN4CCCC(F)(F)C4)n3)cc2)C1=O` yielded a logD in [4] of 4.7. For the same molecule, the pKa in series [5] is 5.
On to `CC(C)CN1C(=O)CN(Cc2ccc(-c3cccc(CN4CCS(=O)(=O)CC4)n3)cc2)C1=O`, for which the logD in [4] was found to be 3. For the same molecule, the pKa in series [5] came out at 3.7.
On the same counts, the results for `CC(C)CN1C(=O)CN(Cc2ccc(-c3ccc(F)c(CN4CCS(=O)(=O)CC4)n3)cc2)C1=O` are 3 and 3.
On to `CCN1C(=O)CN(Cc2ccc(-c3cccc(CC4CCCCC4)n3)cc2)C1=O`, for which the logD in series [4] turned out to be 5.6.
For the molecule `O=C1CN(Cc2ccc(-c3ccc(F)c(CN4CCS(=O)(=O)CC4)n3)cc2)C(=O)N1C1CC1`, the Vd in series [1] was 0.94 L/kg. In addition, the values for the Kp at 4 h in “in vivo [7]” and in the series “in vivo [8]” were 0.05 and 0.14, respectively. The molecule further displayed a Cmax in series [2] of 3800 nM. Also, in series [3], the Papp at 1 h, 20 µM came out at 17.3 ×10⁻⁶ cm/s. For the same molecule, the logD in [4] came out at 1. The pKa in series [5] came to 2.8. This molecule also showed a fCmax in the series with Rattus norvegicus of 1.7 µM. Moreover, the bioavailability in series [6] came to 100%.

(Values after ChEMBL document CHEMBL1833934, “Discovery and optimization of 1-(4-(pyridin-2-yl)benzyl)imidazolidine-2,4-dione derivatives as a novel class of selective cannabinoid CB2 receptor agonists” (J Med Chem, 2011).)
